{
  "source": "patent US6433025B1",
  "about": "“Method for retarding and preventing sunburn by UV light” (Cyanotech Corporation, priority 2000, dated 2002)",
  "key": {"vitamin E-deficient rats": {"system": "vitamin E-deficient rats", "settings": "rat, in vivo; cited from earlier work"}, "[1]": {"system": "interleukin-1 alpha and tumor necrosis factor alpha", "settings": "mouse, in vivo; cited from earlier work"}, "primed spleen cells": {"system": "primed spleen cells", "settings": "cited from earlier work"}, "rat kidney fibroblasts": {"system": "rat kidney fibroblasts", "settings": "cited from earlier work; for level necessary to protect against UV-induced loss of catalase (CAT) / level required to protect against loss of SOD activity / level that prevented the UVA-induced increase in TBARS: UVA light for four hours"}, "human blood": {"system": "human blood", "settings": "response to T-dependent stimuli; cited from earlier work"}, "SKH hairless mice": {"system": "SKH hairless mice", "settings": "fed as sole carotenoid source; cited from earlier work"}, "SKH1 hairless mice": {"system": "SKH1 hairless mice", "settings": "cited from earlier work"}, "sunburn by UVR exposure": {"system": "sunburn by UVR exposure", "experiment": "Example 1: oral astaxanthin soft gel capsules in a subject with extreme propensity for sunburns", "type": "in vivo, human", "procedure": "Haematococcus algae meal containing 1.5% astaxanthin was thoroughly mixed with safflower oil such that the resulting suspension contained 2.0 mg of pure astaxanthin per gram of safflower oil suspension. 500 mg soft gel capsules were produced from the safflower oil suspension such that each soft gel capsule contained 1.0 mg of pure astaxanthin.\nOne individual was an adult with extreme propensity for sunburns. The subject had come to Hawaii for vacation and had already sunburned on a 10 minute walk with SPF 50 sunblock cream, long pants and sleeves. They then began taking 2 milligrams of astaxanthin of the above formulation per day. On the eleventh day, they took another walk in the afternoon, on a cloudy day, with long pants, a tee shirt, but without a hat or sunglasses. While 1 mile away from their condo, the clouds dissipated and they were exposed to the full sun while walking back."}, "[2]": {"system": "sunblister sores and sun sensitivity", "experiment": "Example 2: oral astaxanthin in a construction worker with sunblister sores", "type": "in vivo, human", "settings": "4 milligrams per day oral", "source_text": "An adult subject is a construction worker in Hawaii and is routinely exposed to the UVR of the sun while working outside. They were often affected by sunblister sores breaking out on their arm after a long day of sun exposure. The individual began taking 4 milligrams of astaxanthin per day derived from Haematococcus algae (as described in the above Example 1). Two milligrams of astaxanthin were consumed with lunch and 2 milligrams with dinner.\nThe individual stopped taking the astaxanthin formulation for two weeks and the blisters and sun sensitivity returned."}, "hairless mouse": {"system": "hairless mouse", "settings": "repeated topical treatment; cited from earlier work"}, "human sunburn response": {"system": "human sunburn response", "settings": "oral supplementation, normal individuals; cited from earlier work"}, "[3]": {"system": "basal-cell and squamous-cell carcinomas", "settings": "4.5 years, cited from earlier work"}, "UV-induced erythema": {"system": "UV-induced erythema", "settings": "cited from earlier work"}, "skin of volunteers": {"system": "skin of volunteers", "settings": "10% solution applied to the skin, cited from earlier work"}, "laboratory animals": {"system": "laboratory animals", "settings": "applied up to 8 hours following UVB exposure; cited from earlier work"}, "sunburn cells": {"system": "sunburn cells", "settings": "in vivo; cited from earlier work"}},
  "data": [
    {"compound": "CC1=C(/C=C/C(C)=C/C=C/C(C)=C/C=C/C=C(C)/C=C/C=C(C)/C=C/C2=C(C)C(=O)[C@@H](O)CC2(C)C)C(C)(C)C[C@H](O)C1=O", "note": "[astaxanthin]", "values": [
      {"measurement": "mitochondrial damage caused by lipid peroxidation", "setting": "vitamin E-deficient rats", "value": "protects the mitochondria from damage"},
      {"measurement": "release of interleukin-1 alpha and tumor necrosis factor alpha", "setting": "[1]", "value": "enhances the release of interleukin-1 alpha and tumor necrosis factor alpha in mice to a greater degree than canthaxanthin and beta-carotene"},
      {"measurement": "number of antibody-secreting cells from primed spleen cells", "setting": "primed spleen cells", "value": "increased"},
      {"measurement": "T-helper cell antibody production", "setting": "primed spleen cells; even when suboptimal amounts of antigen were present", "value": "enhanced"},
      {"measurement": "level necessary to protect against UV-induced loss of catalase (CAT)", "setting": "rat kidney fibroblasts", "value": 5, "unit": "nM"},
      {"measurement": "level required to protect against loss of SOD activity", "setting": "rat kidney fibroblasts", "value": 5, "unit": "nM"},
      {"measurement": "level that prevented the UVA-induced increase in TBARS", "setting": "rat kidney fibroblasts", "value": 1, "unit": "nM"},
      {"measurement": "protection against UVA light-induced oxidative stress compared to lutein and beta-carotene", "setting": "rat kidney fibroblasts", "value": "superior protection"},
      {"measurement": "production of IgM, IgA and IgG antibodies", "setting": "human blood", "value": "enhances"},
      {"measurement": "probability of epidermal tumors", "setting": "SKH hairless mice", "value": "tended to have higher probability of epidermal tumors"},
      {"measurement": "prevention of increases of free putrescine after irradiation", "setting": "SKH1 hairless mice; astaxanthin alone or in combination with retinol", "value": "remarkably effective"},
      {"measurement": "increase of epidermal putrescine after irradiation", "setting": "SKH1 hairless mice; diet 10-ppm astaxanthin, 4 months, ultraviolet light", "value": 1.5, "unit": "fold"},
      {"measurement": "spermidine and spermine concentrations", "setting": "SKH1 hairless mice; groups fed astaxanthin", "value": "significantly lower"},
      {"measurement": "inhibitory effect on putrescine accumulation compared with dietary retinol", "setting": "SKH1 hairless mice; mouse, in vivo", "value": "stronger inhibitory effect"},
      {"measurement": "sunburn after exposure to the full sun", "setting": "sunburn by UVR exposure; adult female, 2 milligrams of astaxanthin per day oral, eleventh day", "value": "not affected by the UVR exposure"},
      {"measurement": "sunburn effects while wearing shorts outside", "setting": "sunburn by UVR exposure; remainder of vacation, while taking the astaxanthin supplement", "value": "without sunburn effects"},
      {"measurement": "sensitivity to the sunlight", "setting": "[2]; after 1 month", "value": "noticeably improved"},
      {"measurement": "sunblister sores", "setting": "[2]; after 1 month", "value": "all of their blisters were healed"},
      {"measurement": "sunblister sores", "setting": "[2]; after 2 weeks", "value": "blisters began to heal"},
      {"measurement": "sensitivity to sun exposure", "setting": "[2]; adult male, after 2 weeks", "value": "not sensitive to the sun exposure"}
    ]},
    {"compound": "O=C(OOC(=O)c1ccccc1)c1ccccc1", "note": "[benzoyl peroxide]", "values": [
      {"measurement": "cutaneous effects of repeated administration", "setting": "hairless mouse", "value": "produces skin changes in the hairless mouse that qualitatively resemble those produced by ultraviolet B"}
    ]},
    {"compound": "CC1=C(/C=C/C(C)=C/C=C/C(C)=C/C=C/C=C(C)/C=C/C=C(C)/C=C/C2=C(C)CCCC2(C)C)C(C)(C)CCC1", "note": "[beta-carotene]", "values": [
      {"measurement": "number of antibody-secreting cells from primed spleen cells", "setting": "primed spleen cells", "value": "not"},
      {"measurement": "level necessary to protect against UV-induced loss of catalase (CAT)", "setting": "rat kidney fibroblasts", "value": 1000, "unit": "nM"},
      {"measurement": "level required to protect against loss of SOD activity", "setting": "rat kidney fibroblasts", "value": 500, "unit": "nM"},
      {"measurement": "level that prevented the UVA-induced increase in TBARS", "setting": "rat kidney fibroblasts", "value": 100, "unit": "nM"},
      {"measurement": "severity of cutaneous photodamage", "setting": "human sunburn response", "value": "unlikely to modify"},
      {"measurement": "probability of epidermal tumors", "setting": "SKH hairless mice", "value": "tended to have higher probability of epidermal tumors"},
      {"measurement": "incidence of basal-cell or squamous-cell carcinoma versus placebo", "setting": "[3]; 30 mg per day", "value": "no significant difference"},
      {"measurement": "incidence of basal-cell carcinoma in terms of number of tumors", "setting": "[3]", "value": "no effect"}
    ]},
    {"compound": "CC1=C(/C=C/C(C)=C/C=C/C(C)=C/C=C/C=C(C)/C=C/C=C(C)/C=C/C2=C(C)C(=O)CCC2(C)C)C(C)(C)CCC1=O", "note": "[canthaxanthin]", "values": [
      {"measurement": "number of antibody-secreting cells from primed spleen cells", "setting": "primed spleen cells", "value": "not"}
    ]},
    {"compound": "CC1=C[C@H](O)CC(C)(C)[C@H]1/C=C/C(C)=C/C=C/C(C)=C/C=C/C=C(C)/C=C/C=C(C)/C=C/C1=C(C)C[C@@H](O)CC1(C)C", "note": "[lutein]", "values": [
      {"measurement": "number of antibody-secreting cells from primed spleen cells", "setting": "primed spleen cells", "value": "not"},
      {"measurement": "level necessary to protect against UV-induced loss of catalase (CAT)", "setting": "rat kidney fibroblasts", "value": 100, "unit": "nM"},
      {"measurement": "level required to protect against loss of SOD activity", "setting": "rat kidney fibroblasts", "value": 1000, "unit": "nM"},
      {"measurement": "level that prevented the UVA-induced increase in TBARS", "setting": "rat kidney fibroblasts", "value": 1000, "unit": "nM"}
    ]},
    {"compound": "CC(C)=CCC/C(C)=C/C=C/C(C)=C/C=C/C(C)=C/C=C/C=C(C)/C=C/C=C(C)/C=C/C=C(\\C)CCC=C(C)C", "note": "[lycopene]", "values": [
      {"measurement": "number of antibody-secreting cells from primed spleen cells", "setting": "primed spleen cells", "value": "not"},
      {"measurement": "probability of epidermal tumors", "setting": "SKH hairless mice", "value": "tended to have higher probability of epidermal tumors"}
    ]},
    {"compound": "COc1ccc2[nH]cc(CCNC(C)=O)c2c1", "note": "[melatonin]", "values": [
      {"measurement": "protective effects against UV-induced erythema", "setting": "UV-induced erythema; applied after UV irradiation", "value": "no significant protective effects"},
      {"measurement": "development of UV-induced erythema", "setting": "UV-induced erythema; topical, 15 min before UV irradiation", "value": "almost completely suppress"}
    ]},
    {"compound": "O=C1O[C@H]([C@@H](O)CO)C(O)=C1O", "note": "[vitamin C]", "values": [
      {"measurement": "increase in amount of ultraviolet light needed to burn", "setting": "skin of volunteers; average", "value": 22, "unit": "%"},
      {"measurement": "severity of burns", "setting": "skin of volunteers", "value": "half of the volunteers experienced much less severe bums"}
    ]},
    {"compound": "CC(=O)Oc1c(C)c(C)c2c(c1C)CCC(C)(CCC[C@H](C)CCC[C@H](C)CCCC(C)C)O2", "note": "(stereo partly drawn) [vitamin E acetate]", "values": [
      {"measurement": "inflammation, skin sensitivity and skin damage", "setting": "laboratory animals", "value": "prevented inflammation, skin sensitivity and skin damage"}
    ]},
    {"compound": "tocopherol", "values": [
      {"measurement": "number of sunburn cells", "setting": "sunburn cells", "value": "decreased"}
    ]}
  ]
}
